Test results published in patent US20250326713A1, “INHIBITORS OF MsbA AS ANTIBIOTICS, PHARMACEUTICAL COMPOSITIONS, AND USES THEREOF” (priority 2022, published 2025).
In brackets after ≈: the same amount, converted by molar mass.

Each compound was assayed on various strains of bacteria (assay: Antimicrobial potency: bacterial growth inhibition by OD600 (Antibacterial assay 1, MITC95)). Details: Acinetobacter baumannii, 20 h, lowest concentration giving >95% growth inhibition, CAMHB, 18-22 h.
Type: cell-based, A. baumannii
Description: The concentrations of compounds required to inhibit the growth of various strains of bacteria were determined in an assay that assessed bacterial growth by measuring optical density at 600 nm (OD600). Test articles were dissolved in 100% DMSO and serially diluted two-fold from their maximal concentration in 100% DMSO. Forty-nine μl of bacterial inoculum (at approx. 2×10^5 cfu/mL in CAMHB) were put into wells of an assay plate. One μl of compound or DMSO was transferred from the source plate to the assay plate. The completed assay plates were then incubated at 35+2degC for 18-22 h. Bacterial growth was measured by reading OD600 on a spectrophotometer. Data analysis calculates the lowest concentration of compound which results in >95% growth inhibition (minimum inhibitory threshold concentration 95%, MITC95).

| Compound | MIC [µM] |
| --- | --- |
| O=C(O)c1cc(COC2CC(OCc3ccc(NS(=O)(=O)c4cnn(-c5ccc(F)cc5)c4)c(C(=O)O)c3)C2)ccc1NS(=O)(=O)c1cnn(-c2ccc(F)cc2)c1 (stereo not drawn) [Compound 12, trans-5-((3-((3-carboxy-4-((1-(4-fluorophenyl)-1H-pyrazole)-4-sulfonamido)benzyl)oxy)-cyclobutoxy)methyl)-2-((1-(4-fluorophenyl)-1H-pyrazole)-4-sulfonamido)benzoic acid] | 0.138 (≈ 0.115 µg/mL) |
| O=C(O)c1cc(CNC2CC(CNc3ccc(NS(=O)(=O)c4cnn(-c5ccc(F)cc5)c4)c(C(=O)O)c3)C2)ccc1NS(=O)(=O)c1cnn(-c2ccc(Cl)cc2)c1 (centres unmarked) [Compound 29] | 0.0489 (≈ 0.0415 µg/mL) |
| O=C(O)c1cc(OC[C@H]2CC[C@@H](COc3ccc(NS(=O)(=O)c4ccc(-c5ccc(F)cc5)cc4)c(C(=O)O)c3)O2)ccc1NS(=O)(=O)c1ccc(-c2ccc(F)cc2)cc1 [Compound 22] | 0.0489 (≈ 0.0426 µg/mL) |
| O=C(O)c1cc(NCC2CC(NCc3ccc(NS(=O)(=O)c4cnc(-c5ccc(Cl)cc5)s4)c(C(=O)O)c3)C2)ccc1NS(=O)(=O)c1cnn(-c2ccc(F)cc2)c1 (centres unmarked) [Compound 26] | 0.0489 (≈ 0.0424 µg/mL) |
| O=C(NCc1ccccc1)C(=O)Nc1ccc(OC2CN(Cc3ccc(NS(=O)(=O)c4ccc(-c5ccc(Cl)cc5)cc4)c(C(=O)O)c3)C2)cc1C(=O)O [Compound 62] | < 0.0488 |
| O=C(O)c1cc(CN[C@H]2C[C@@H](NCc3ccc(NS(=O)(=O)c4cnn(-c5ccc(Cl)cc5)c4)c(C(=O)O)c3)C2)ccc1NS(=O)(=O)c1cnn(-c2ccc(Cl)cc2)c1 [Compound 48, 5-((((1s, 3s)-3-((3-carboxy-4-((1-(4-chlorophenyl)-1H-pyrazole)-4-sulfonamido)benzyl)amino)cyclobutyl)amino)methyl)-2-((1-(4-chlorophenyl)-1H-pyrazole)-4-sulfonamido)benzoic acid] | 0.321 (≈ 0.278 µg/mL) |
| O=C(O)c1cc(CNC2CC(CNc3ccc(NS(=O)(=O)c4cnn(-c5ccc(Cl)cc5)c4)c(C(=O)O)c3)C2)ccc1NS(=O)(=O)c1cnn(-c2ccc(F)cc2)c1 (centres unmarked) [Compound 35] | 0.0489 (≈ 0.0415 µg/mL) |
| O=C(O)c1cc(OC[C@H]2C[C@@H](NCc3ccc(NS(=O)(=O)N4CCOC(c5ccc(F)cc5)C4)c(C(=O)O)c3)C2)ccc1NS(=O)(=O)c1cnn(-c2ccc(Cl)cc2)c1 (some centres unmarked) [Compound 89] | < 0.00306 |
| O=C(CCCC(=O)c1ccc(F)cc1)Nc1ccc(OC2CN(Cc3ccc(NS(=O)(=O)c4cnn(-c5ccc(Cl)cc5)c4)c(C(=O)O)c3)C2)cc1C(=O)O [Compound 75] | 0.277 (≈ 0.219 µg/mL) |
| O=C(O)c1cc(NCC2CC(NCc3ccc(NS(=O)(=O)c4cnn(-c5ccc(F)cc5)n4)c(C(=O)O)c3)C2)ccc1NS(=O)(=O)c1cnn(-c2ccc(F)cc2)c1 (centres unmarked) [Compound 31] | 0.196 (≈ 0.163 µg/mL) |
| O=C(NCc1ccc(Cl)cc1)C(=O)Nc1ccc(CN2CC(Oc3ccc(NS(=O)(=O)N4CCOC(c5ccc(F)cc5)C4)c(C(=O)O)c3)C2)cc1C(=O)O (centres unmarked) [Compound 56] | 0.0978 (≈ 0.0779 µg/mL) |
| O=C(O)c1cc(CN2CC(Oc3ccc(NS(=O)(=O)c4ccc(-c5ccc(F)cc5)cc4)c(C(=O)O)c3)C2)ccc1NS(=O)(=O)CCc1ccc(Cl)cc1 [Compound 99, 5-((1-(3-carboxy-4-((2-(4-chlorophenyl)ethyl)sulfonamido)benzyl)azetidin-3-yl)oxy)-2-((4′-fluoro-[1, l′-biphenyl])-4-sulfonamido)benzoic acid] | 0.0245 (≈ 0.0195 µg/mL) |
| O=C(O)c1cc(OC[C@H]2CC[C@@H](COc3ccc(NS(=O)(=O)CCc4ccc(Cl)cc4)c(C(=O)O)c3)O2)ccc1NS(=O)(=O)CCc1ccc(Cl)cc1 [Compound 21] | 0.0489 (≈ 0.0395 µg/mL) |
| C[C@]1(NCc2ccc(NS(=O)(=O)c3cnn(-c4ccc(Cl)cc4)c3)c(C(=O)O)c2)C[C@@H](NCc2ccc(NS(=O)(=O)c3cnn(-c4ccc(Cl)cc4)c3)c(C(=O)O)c2)C1 [Compound 51] | 3.13 (≈ 2.75 µg/mL) |
| O=C(O)c1cc(CN2CC(Oc3ccc(NS(=O)(=O)c4cnn(-c5ccc(F)cc5)c4)c(C(=O)O)c3)C2)ccc1NS(=O)(=O)CCCc1ccc(Cl)cc1 [Compound 43] | 0.0489 (≈ 0.039 µg/mL) |
| O=C(O)c1cc(CN2CC(Oc3ccc(NS(=O)(=O)c4cnn(-c5ccc(Cl)cc5)c4)c(C(=O)O)c3)C2)ccc1NS(=O)(=O)CCCCc1ccc(Cl)cc1 [Compound 41] | 0.0122 (≈ 0.0101 µg/mL) |
| O=C(O)c1cc(CN[C@H]2C[C@@H](COc3ccc(NS(=O)(=O)c4cnc(-c5ccc(Cl)cc5)s4)c(C(=O)O)c3)C2)ccc1NS(=O)(=O)CCc1ccc(Cl)cc1 [Compound 93] | 0.00611 (≈ 0.00517 µg/mL) |
| O=C(CCCCCc1ccccc1)Nc1ccc(OC2CN(Cc3ccc(NS(=O)(=O)c4cnn(-c5ccc(Cl)cc5)c4)c(C(=O)O)c3)C2)cc1C(=O)O [Compound 66] | 0.0489 (≈ 0.0378 µg/mL) |
| O=C(NCc1ccc(Cl)cc1)C(=O)Nc1ccc(OC2CN(Cc3ccc(NS(=O)(=O)CCc4ccc(Cl)cc4)c(C(=O)O)c3)C2)cc1C(=O)O [Compound 61] | 0.196 (≈ 0.148 µg/mL) |

Now from value to compound:

| MIC [µM] | Compound |
| --- | --- |
| 1.56 (≈ 1.3 µg/mL) | O=C(O)c1cc(CN[C@H]2C[C@@H](NCc3ccc(NS(=O)(=O)c4cnn(-c5ccc(F)cc5)c4)c(C(=O)O)c3)C2)ccc1NS(=O)(=O)c1cnn(-c2ccc(F)cc2)c1 [Compound 49] |
| 0.391 (≈ 0.33 µg/mL) | O=C(O)c1cc(CN2CC(Oc3ccc(NS(=O)(=O)N4CCOC(c5ccc(F)cc5)C4)c(C(=O)O)c3)C2)ccc1NS(=O)(=O)N1CCOC(c2ccc(F)cc2)C1 (centres unmarked) [Compound 44, 5-((1-(3-carboxy-4-((2-(4-fluorophenyl)morpholine)-4-sulfonamido)benzyl)azetidin-3-yl)oxy)-2-((2-(4-fluorophenyl)morpholine)-4-sulfonamido)benzoic acid] |
| 0.391 (≈ 0.317 µg/mL) | O=C(O)c1cc(CNC2CC(CNc3ccc(NS(=O)(=O)c4cnn(-c5ccc(F)cc5)c4)c(C(=O)O)c3)C2)ccc1NS(=O)(=O)CCc1ccc(Cl)cc1 (centres unmarked) [Compound 27] |
| 0.155 (≈ 0.129 µg/mL) | O=C(O)c1cc(CNC2CC(CNc3ccc(NS(=O)(=O)c4cnn(-c5ccc(F)cc5)c4)c(C(=O)O)c3)C2)ccc1NS(=O)(=O)c1cnn(-c2ccc(F)cc2)c1 (stereo not drawn) [Compound 25, cis-5-(((3-((3-carboxy-4-((1-(4-fluorophenyl)-1H-pyrazole)-4-sulfonamido)benzyl)amino)cyclobutyl)methyl)amino)-2-((1-(4-fluorophenyl)-1H-pyrazole)-4-sulfonamido)benzoic acid] |
| 0.0978 (≈ 0.0839 µg/mL) | CC1(Oc2ccc(NS(=O)(=O)N3CCOC(c4ccc(F)cc4)C3)c(C(=O)O)c2)CN(Cc2ccc(NS(=O)(=O)N3CCOC(c4ccc(F)cc4)C3)c(C(=O)O)c2)C1 (centres unmarked) [Compound 45] |
| 0.0978 (≈ 0.079 µg/mL) | O=C(O)c1cc(CN2CC(Oc3ccc(NS(=O)(=O)c4coc(-c5ccc(F)cc5)n4)c(C(=O)O)c3)C2)ccc1NS(=O)(=O)c1coc(-c2ccc(F)cc2)n1 [Compound 116] |
| 0.0489 (≈ 0.0374 µg/mL) | O=C(CCc1ccc(Cl)cc1)Nc1ccc(OC2CN(Cc3ccc(NS(=O)(=O)c4cnn(-c5ccc(Cl)cc5)c4)c(C(=O)O)c3)C2)cc1C(=O)O [Compound 65, 5-((1-(3-carboxy-4-((1-(4-chlorophenyl)-1H-pyrazole)-4-sulfonamido)-benzyl)azetidin-3-yl)oxy)-2-(3-(4-chlorophenyl)propanamido)benzoic acid] |
| 0.0489 (≈ 0.039 µg/mL) | O=C(O)c1cc(CN2CC(Oc3ccc(NS(=O)(=O)c4cnn(-c5ccc(Cl)cc5)c4)c(C(=O)O)c3)C2)ccc1NS(=O)(=O)CCCc1ccc(F)cc1 [Compound 42] |
| 0.0489 (≈ 0.041 µg/mL) | O=C(O)c1cc(CN2CC(Oc3ccc(NS(=O)(=O)c4cnn(-c5ccc(Cl)cc5)c4)c(C(=O)O)c3)C2)ccc1NS(=O)(=O)c1cnn(-c2ccc(Cl)cc2)c1 [Compound 117] |
| 0.0346 (≈ 0.0288 µg/mL) | O=C(O)c1cc(CN2CC(Oc3ccc(NS(=O)(=O)c4ccc(-c5ccc(Cl)cc5)cc4)c(C(=O)O)c3)C2)ccc1NS(=O)(=O)c1cnn(-c2ccc(F)cc2)c1 [Compound 104] |
| 0.0346 (≈ 0.0269 µg/mL) | O=C(O)c1cc(OC2CN(Cc3ccc(NS(=O)(=O)c4ccc(-c5ccc(F)cc5)cc4)c(C(=O)O)c3)C2)ccc1NS(=O)(=O)CCc1ccc(F)cc1 [Compound 83] |
| 0.0245 (≈ 0.0212 µg/mL) | O=C(O)c1cc(CNC2CC(CNc3ccc(NS(=O)(=O)c4cnn(-c5ccc(Cl)cc5)c4)c(C(=O)O)c3)C2)ccc1NS(=O)(=O)c1cnn(-c2ccc(Cl)cc2)c1 (centres unmarked) [Compound 32] |
| 0.0245 (≈ 0.0206 µg/mL) | O=C(O)c1cc(CN2CC(Oc3ccc(NS(=O)(=O)c4ccc(-c5ccc(Cl)cc5)cc4)c(C(=O)O)c3)C2)ccc1NS(=O)(=O)c1ccc(Oc2ccccc2)nc1 [Compound 105] |
| 0.0122 (≈ 0.0106 µg/mL) | O=C(O)c1cc(OC[C@H]2C[C@@H](NCc3ccc(NS(=O)(=O)N4CC(Oc5ccc(F)cc5)C4)c(C(=O)O)c3)C2)ccc1NS(=O)(=O)c1cnc(-c2ccc(Cl)cc2)s1 [Compound 96] |
| 0.0122 (≈ 0.00991 µg/mL) | O=C(NCc1ccc(Cl)cc1)C(=O)Nc1ccc(OC2CN(Cc3ccc(NS(=O)(=O)N4CCOC(c5ccc(Cl)cc5)C4)c(C(=O)O)c3)C2)cc1C(=O)O (centres unmarked) [Compound 60] |
| 0.0122 (≈ 0.0104 µg/mL) | O=C(O)c1cc(OC[C@H]2C[C@@H](NCc3ccc(NS(=O)(=O)N4CCOC(c5ccc(F)cc5)C4)c(C(=O)O)c3)C2)ccc1NS(=O)(=O)c1cnn(-c2ccc(F)cc2)c1 (some centres unmarked) [Compound 88] |
| 0.00865 (≈ 0.00717 µg/mL) | O=C(O)c1cc(CN[C@H]2C[C@@H](COc3ccc(NS(=O)(=O)c4cnc(-c5ccc(Cl)cc5)s4)c(C(=O)O)c3)C2)ccc1NS(=O)(=O)CCc1ccc(F)cc1 [Compound 90] |
| 0.00611 (≈ 0.00532 µg/mL) | O=C(O)c1cc(OC[C@H]2C[C@@H](NCc3ccc(NS(=O)(=O)N4CCOC(c5ccc(F)cc5)C4)c(C(=O)O)c3)C2)ccc1NS(=O)(=O)c1cnc(-c2ccc(F)cc2)s1 (some centres unmarked) [Compound 92] |

Same assay, conditions: lowest concentration giving >95% growth inhibition, CAMHB, 18-22 h

| Compound | MIC [µM] |
| --- | --- |
| O=C(O)c1cc(OC2CN(Cc3ccc(NS(=O)(=O)c4ccc(-c5ccc(Cl)cc5)cc4)c(C(=O)O)c3)C2)ccc1NS(=O)(=O)CCc1ccc(F)cc1 [Compound 81, 5-((3-(3-carboxy-4-((2-(4-fluorophenyl)ethyl)sulfonamido)phenoxy)azetidin-1-yl)methyl)-2-((4′-chloro-[1, l′-biphenyl])-4-sulfonamido)benzoic acid] | 0.0122 (≈ 0.00969 µg/mL) |
